These results are taken from ChEMBL document CHEMBL3108733, “Design, synthesis, and evaluation of hydroxamic acid derivatives as promising agents for the management of Chagas disease” (J Med Chem, 2014).

pIC50, pKi: −log10 of the molar value. Calls of active or inactive are those of the source. The calls are words filed in the database; no cut-off is given here.

A short description of series [1]: Inhibition of Trypanosoma cruzi recombinant carbonic anhydrase-mediated CO2 hydration by stopped-flow assay.
In series [2] the test system is Trypanosoma cruzi. Kind of series: Antitrypanosomal activity against Trypanosoma cruzi Y epimastigotes assessed as growth inhibition at 32 uM after 5 days by Neubauer chamber counting analysis relative to control. It is filed as functional.
A further series concerns the target Carbonic anhydrase 2 (Homo sapiens, UniProt P00918). The series is described as follows: Inhibition of human recombinant carbonic anhydrase-2-mediated CO2 hydration by stopped-flow assay.
The target of the next series is Carbonic anhydrase 1 (Homo sapiens, UniProt P00915). The series is described as follows: Inhibition of human recombinant carbonic anhydrase-1-mediated CO2 hydration by stopped-flow assay.
Sequence of Carbonic anhydrase 1 (P00915 whole entry): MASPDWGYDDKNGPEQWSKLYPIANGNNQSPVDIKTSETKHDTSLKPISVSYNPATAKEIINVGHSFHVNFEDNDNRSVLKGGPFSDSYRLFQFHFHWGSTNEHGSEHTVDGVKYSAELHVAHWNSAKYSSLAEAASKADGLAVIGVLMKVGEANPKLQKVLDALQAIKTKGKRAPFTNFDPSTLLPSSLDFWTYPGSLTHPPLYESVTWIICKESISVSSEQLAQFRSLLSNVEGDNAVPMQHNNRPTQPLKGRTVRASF
The test system of series [3] is Trypanosoma cruzi. The series is described as follows: Trypanocidal activity against Trypanosoma cruzi Y infected in BALB/c mouse assessed as mouse survival at 100 mg/kg treated from day 2 to day 9 post-infection. It is filed as functional.
The test system of series [4] is Trypanosoma cruzi. The series is described as follows: Inhibition of MMP9 in Trypanosoma cruzi Y epimastigotes assessed as effect on protein level at 32 uM after 5 days by Western blotting analysis. On the technique in general: Immunoblotting shows a protein as a band on a membrane.
In series [5] the test system is Trypanosoma cruzi. The series is described as follows: Trypanocidal activity against Trypanosoma cruzi Y infected in BALB/c mouse assessed as mouse survival at 25 mg/kg treated from day 2 to day 9 post-infection. It is filed as functional.
The subject of series [6] is Trypanosoma cruzi. The series is described as follows: Trypanocidal activity against Trypanosoma cruzi Y infected in BALB/c mouse assessed as reduction in parasitemia at 25 mg/kg treated from day 2 to day 9 post-infection measured on day 9 post-infection. It is filed as functional, organism-based. Also noted: dose 25 mg/kg.
In series [7] the test system is Trypanosoma cruzi. Kind of series: Trypanocidal activity against Trypanosoma cruzi Y infected in BALB/c mouse assessed as reduction in parasitemia at 25 mg/kg treated from day 2 to day 9 post-infection measured on day 6 post-infection. Format: functional, organism-based. Also noted: dose 25 mg/kg.
Series [8] is described as follows: Cytotoxicity against BALB/c mouse peritoneal macrophages after 48 hrs by MTT/LDH assay. It is filed as cell-based, Peritoneal macrophage cell.
Series [9] can be described thus: Cytotoxicity against BALB/c mouse peritoneal macrophages after 24 hrs by MTT/LDH assay. Format: cell-based, Peritoneal macrophage cell.
Series [10] has as its system Trypanosoma cruzi. The series is described as follows: Antitrypanosomal activity against Trypanosoma cruzi Y infected in human THP1 cells assessed as decrease in intracellular amastigotes at 2 uM after 48 hrs by Giemsa staining-based Neubauer chamber counting analysis. It is filed as functional, organism-based. The settings on record: THP-1.
Series [11] concerns Trypanosoma cruzi. Kind of series: Antitrypanosomal activity against Trypanosoma cruzi Y infected in BALB/c mouse peritoneal macrophages assessed as decrease in trypomastigotes release at 16 uM after 120 hrs by Giemsa staining-based Neubauer chamber counting analysis. It is filed as functional, organism-based.
Series [12] relates to Trypanosoma cruzi. The series is described as follows: Antitrypanosomal activity against Trypanosoma cruzi Y infected in human THP1 cells assessed as reduction of parasite burden after 48 hrs by Giemsa staining-based Neubauer chamber counting analysis. To be noted: THP-1, 48 h.
In series [13] the test system is Trypanosoma cruzi. Kind of series: Antitrypanosomal activity against Trypanosoma cruzi Y infected in human THP1 cells assessed as reduction of parasite burden at 32 uM after 48 hrs by Giemsa staining-based Neubauer chamber counting analysis relative to control. Further details: scale not given: the % may be the effect or the level left. Format: functional, THP-1.

The test system of series [14] is Trypanosoma cruzi. Kind of series: Antitrypanosomal activity against Trypanosoma cruzi Y infected in BALB/c mouse peritoneal macrophages assessed as reduction of parasite burden after 48 hrs by Giemsa staining-based Neubauer chamber counting analysis.
Series [15] deals with Trypanosoma cruzi. Kind of series: Antitrypanosomal activity against Trypanosoma cruzi Y infected in BALB/c mouse peritoneal macrophages assessed as reduction of parasite burden at 32 uM after 48 hrs by Giemsa staining-based Neubauer chamber counting analysis relative to control. Format: functional. Also noted: scale not given: the % may be the effect or the level left.
Series [16] has as its system Trypanosoma cruzi. The series is described as follows: Antitrypanosomal activity against Trypanosoma cruzi Dm28c trypomastigotes after 48 hrs by Neubauer chamber counting analysis.
Series [17] deals with Trypanosoma cruzi. The series is described as follows: Antitrypanosomal activity against Trypanosoma cruzi Y trypomastigotes after 48 hrs by Neubauer chamber counting analysis.
Series [18] has as its system Trypanosoma cruzi. Kind of series: Antitrypanosomal activity against Trypanosoma cruzi Dm28c trypomastigotes at 16 uM after 48 hrs by Neubauer chamber counting analysis relative to control. It is filed as functional.
Series [19] concerns Trypanosoma cruzi. Kind of series: Antitrypanosomal activity against Trypanosoma cruzi Y trypomastigotes at 16 uM after 48 hrs by Neubauer chamber counting analysis relative to control. It is filed as functional.
In series [20] the test system is Trypanosoma cruzi. Kind of series: Antitrypanosomal activity against Trypanosoma cruzi Dm28c epimastigotes after 5 days by resazurin dye-based assay. To be noted: 120 h. In general terms: Resazurin is reduced to fluorescent resorufin, in cell work by metabolically active cells.
For series [21], the system named is Trypanosoma cruzi. The series is described as follows: Antitrypanosomal activity against Trypanosoma cruzi Y epimastigotes after 5 days by resazurin dye-based assay. The settings on record: 120 h.
Series [22] relates to Trypanosoma cruzi. To be noted: Y, 16 uM.
Description: Inhibition of MMP9 in Trypanosoma cruzi Y epimastigotes assessed as effect on protein level at 16 uM after 5 days by Western blotting analysis
Series [23] deals with Trypanosoma cruzi. The settings on record: Y, 32 to 64 uM.
Description: Inhibition of cysteine peptidase in Trypanosoma cruzi Y epimastigotes at 32 to 64 uM after 12 hrs by gelatin zymography assay
Series [24] has as its system Trypanosoma cruzi. To be noted: Y, 32 to 64 uM. This is another data set of the same source.
Description: Inhibition of metallopeptidase in Trypanosoma cruzi Y epimastigotes at 32 to 64 uM after 12 hrs by gelatin zymography assay

Take `CC1(C(=O)NO)CC(c2cccc(F)c2)=NO1` (centres undefined): the pKi in series [1] is 6.74.
As for `CC1(C(=O)NO)CC(c2cccc(Cl)c2)=NO1` (centres undefined), the “growth inhibition (GI)” value with Trypanosoma cruzi [2] is “inactive”. In addition, the pKi in series [1] is 6.44.
In the same order, the values of `O=C(NO)C1CC(c2cccc(Cl)c2)=NO1` (centres undefined) are “Active” and 6.57.
`CCOc1ccc(C2=NOC(C(=O)NN)C2)cc1` (centres undefined): the pKi (in series [1]; on Carbonic anhydrase 2; at Carbonic anhydrase 1) was under 4.00 throughout.
Regarding `CCOc1ccc(C2=NOC(C(=O)NO)C2)cc1` (centres undefined), in the series on Trypanosoma cruzi [2], the “growth inhibition (GI)” value was “Active”. Besides, the pKi in series [1] was 7.15.
Turning to `O=C(Cn1ccnc1[N+](=O)[O-])NCc1ccccc1` [BENZNIDAZOLE], in the series on Trypanosoma cruzi [2], the “growth inhibition (GI)” value is “Active”. The Survival with Trypanosoma cruzi [3] stood at 25 days.
Take `CCOc1ccccc1C1=NOC(C(=O)NN)C1` (centres undefined): the pKi (in series [1]; at Carbonic anhydrase 2; at Carbonic anhydrase 1) was under 4.00 in each case.
Consider `O=C(NO)C1CC(c2ccc(Cl)cc2)=NO1` (centres undefined), for which the “growth inhibition (GI)” value in the series on Trypanosoma cruzi [2] is “Active”. The pKi in series [1] is 6.72.
With `CC1(C(=O)NO)CC(c2ccccc2F)=NO1` (centres undefined), in series [1], the pKi is 6.85.
Consider `CCOc1ccccc1C1=NOC(C(=O)NO)C1` (centres undefined), for which the “growth inhibition (GI)” value in the series with Trypanosoma cruzi [2] was “Active”. In addition, the pKi in series [1] is 7.03.
In the case of `C[C@H]1c2cccc(O)c2C(=O)C2=C(O)[C@]3(O)C(=O)C(C(N)=O)=C(O)[C@@H](N(C)C)[C@@H]3[C@@H](O)[C@@H]21`, the inhibition entry with Trypanosoma cruzi [4] was “inactive”.
In the case of `O=C(NO)C1CC(c2ccc(OCc3ccccc3)cc2)=NO1` (centres undefined), in the series with Trypanosoma cruzi [2] (120 h, read-out: GI), the inhibition of growth at 32 µM was determined as 100%. Also, the pKi in series [1] is 7.40. In the series with Trypanosoma cruzi [5], the Survival was 25 days. The result with Trypanosoma cruzi [6], in the series on Trypanosoma cruzi [10] and in the series with Trypanosoma cruzi [11] was Active. Also, the result with Trypanosoma cruzi [7] was inactive. Also, in series [8], the CC50 at 48 h turned out to be 64 µM. The compound further returned a CC50 at 24 h in series [9] of 92 µM. The pIC50 in the series with Trypanosoma cruzi [12] is over 6.00; in the series on Trypanosoma cruzi [14], 5.04; in the series on Trypanosoma cruzi [16], 5.23; with Trypanosoma cruzi [17], 5.46; in the series with Trypanosoma cruzi [20], 4.98; in the series with Trypanosoma cruzi [21], 5.15. In addition, the Activity in the series on Trypanosoma cruzi [13] is on record as 100%; in the series with Trypanosoma cruzi [15], 5%; in the series on Trypanosoma cruzi [18], 100%; in the series on Trypanosoma cruzi [19] it was 100%. Also, the inhibition result in the series with Trypanosoma cruzi [22], in the series with Trypanosoma cruzi [23] and with Trypanosoma cruzi [24] was “Active” throughout.
`O=C(NO)C1CC(c2ccccc2Cl)=NO1` (centres undefined): the “growth inhibition (GI)” value with Trypanosoma cruzi [2] is “Active”. In series [1], the pKi is 6.58.
With `O=C(NO)C1CC(c2ccccc2)=NO1` (centres undefined), the “growth inhibition (GI)” value in the series with Trypanosoma cruzi [2] was “inactive”. Further, the pKi in series [1] was 6.37.
On the same counts, the results for `CC1(C(=O)NO)CC(c2cccc(Br)c2)=NO1` (centres undefined) are “inactive” and 6.21.

One may read the pKi as −log10 of the Ki, conventionally taken in molar units. A word on the CC50: it is the concentration that lowers cell viability or growth by half. What is called pIC50 is −log10 of the IC50, conventionally taken in molar units.
